Data published in patent publication US20160138077A1, “MONITORING AND ASSESSING DEACETYLASE ENZYME ACTIVITY” (THE GENERAL HOSPITAL CORPORATION, priority 2013, published 2016).

Biological target: T1, HDAC6 (Homo sapiens, UniProt Q9UBN7)
T1 sequence (Q9UBN7 1-1215): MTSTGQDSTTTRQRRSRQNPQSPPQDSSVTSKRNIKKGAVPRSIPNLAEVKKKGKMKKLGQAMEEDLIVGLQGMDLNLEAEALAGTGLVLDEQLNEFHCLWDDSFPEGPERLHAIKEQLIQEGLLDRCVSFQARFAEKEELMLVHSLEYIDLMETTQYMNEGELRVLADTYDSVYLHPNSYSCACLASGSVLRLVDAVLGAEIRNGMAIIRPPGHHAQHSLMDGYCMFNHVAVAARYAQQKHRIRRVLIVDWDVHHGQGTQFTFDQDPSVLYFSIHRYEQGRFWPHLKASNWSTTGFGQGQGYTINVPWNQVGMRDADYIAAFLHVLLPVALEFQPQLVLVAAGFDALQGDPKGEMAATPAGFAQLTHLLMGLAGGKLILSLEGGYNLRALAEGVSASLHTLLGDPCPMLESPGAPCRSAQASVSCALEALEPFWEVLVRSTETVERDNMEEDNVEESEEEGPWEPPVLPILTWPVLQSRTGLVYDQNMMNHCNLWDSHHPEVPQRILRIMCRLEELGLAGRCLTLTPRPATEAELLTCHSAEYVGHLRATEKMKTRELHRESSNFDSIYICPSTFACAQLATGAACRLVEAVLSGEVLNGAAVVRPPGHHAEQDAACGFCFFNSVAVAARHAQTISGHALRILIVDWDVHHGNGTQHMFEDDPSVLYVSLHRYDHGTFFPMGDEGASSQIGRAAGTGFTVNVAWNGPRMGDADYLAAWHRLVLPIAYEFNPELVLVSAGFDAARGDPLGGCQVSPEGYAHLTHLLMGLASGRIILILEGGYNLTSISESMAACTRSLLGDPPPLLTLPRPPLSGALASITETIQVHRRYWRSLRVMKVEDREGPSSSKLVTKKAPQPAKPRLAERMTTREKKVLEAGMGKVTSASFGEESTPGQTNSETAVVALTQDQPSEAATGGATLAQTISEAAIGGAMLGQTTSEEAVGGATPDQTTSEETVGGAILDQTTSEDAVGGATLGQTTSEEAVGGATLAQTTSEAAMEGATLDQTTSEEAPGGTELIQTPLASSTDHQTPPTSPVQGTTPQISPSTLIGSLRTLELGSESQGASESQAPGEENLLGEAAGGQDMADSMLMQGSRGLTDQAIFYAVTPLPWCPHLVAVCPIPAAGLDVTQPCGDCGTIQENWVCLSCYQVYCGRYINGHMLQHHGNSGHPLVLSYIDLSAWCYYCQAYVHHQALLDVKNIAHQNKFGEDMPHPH
Assay: LCMS characterization of enzymatic deacetylation by HDAC6
Assay type: biochemical
Settings: 5 μM probe, 12 hours at 37° C.
Experimental: The enzymatic cleavage of HP-1 and HP-2 was analyzed by performing LCMS assays with HeLa nuclear extract (AnaSpec), HeLa whole cell lysate (Santa Cruz Inc.), and the following purified HDAC isoforms: 1, 2, 3, 6 and 8 (HDAC1, 3 and 8 from Cayman Chemicals and HDAC2 and 6 provided by Dr. Stephen Haggarty). Solutions containing (i) vehicle with DMSO in HDAC buffer, (ii) 5 μM probe in HDAC buffer, (iii) 5 μM probe and HDAC enzyme/HeLa nuclear extract/HeLa whole cell lysate in HDAC buffer, or (iv) 5 μM probe and HDAC enzyme/HeLa nuclear extract/HeLa whole cell lysate pre-incubated with 10 μM SAHA (Provided by Dr. Stephen Haggarty) in HDAC buffer were incubated for 12 hours at 37° C. Following incubation, a 20 μL aliquot of supernatant from each sample was analyzed by LCMS. […] For HP-1, the (M+H)^+ ion for the corresponding aldehyde (8, DHP-1) was detected, which formed following reaction of the initial imine deacetylation product with water. […] The peak area for each detected compound was measured to determine the % deacetylation of each probe. All assay samples were analyzed in triplicate. […]
LCMS characterization of HDAC enzymatic action on HP-1 and HP-2. […] Following incubation, an aliquot of supernatant from each sample was analyzed by LCMS. […] The peak area for each detected compound was measured to determine the % deacetylation of each probe (full experimental details in Example 1).

With `CC(=O)NC=CCCCCNC(=O)CCCCCNc1ccc([N+](=O)[O-])c2nonc12` [HP-1] the “% HP-1 to DHP-1” value (HDAC6, +SAHA (10 μM)) was 0% and the “% HP-1 to DHP-1” value (HDAC6, −SAHA) was 0%.
